Measured values reported in PubChem BioAssay (NCI).
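Cultured in 96-well plates, cells were exposed to test compound for 48 hours across five concentrations. TGI is the concentration that stops growth completely.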

How the values were obtained:
Experiment in all cases: NCI anticancer screen, dose series, 48 h
[1] = test system: U251 CNS
[2] = test system: HCT-116 colon
[3] = test system: HOP-62 NSCLC
[4] = test system: NCI-H522 lung
[5] = test system: NCI-H226 lung
[6] = test system: HS 578T breast
[7] = test system: SNB-75 CNS
[8] = test system: NCI-H460 lung
[9] = test system: UACC-62 melanoma
[10] = test system: NCI/ADR-RES ovarian
[11] = test system: HT29 colon
[12] = test system: SF-268 CNS
[13] = test system: MALME-3M melanoma
[14] = test system: HCT-15 colon
[15] = test system: OVCAR-3 ovarian
[16] = test system: ACHN renal
[17] = test system: SW-620 colon
[18] = test system: A549 NSCLC
[19] = test system: TK-10 renal
[20] = test system: HCC-2998 colon
[21] = test system: COLO 205 colon
[22] = test system: MDA-MB-231 breast
[23] = test system: SK-MEL-2 melanoma
[24] = test system: SR leukemia
[25] = test system: M14 melanoma
[26] = test system: DU-145 prostate
[27] = test system: SN12C renal
[28] = test system: OVCAR-5 ovarian
[29] = test system: MOLT-4 leukemia
[30] = test system: SF-539 CNS
[31] = test system: CAKI-1 renal
[32] = test system: MCF7 breast
[33] = test system: IGROV1 ovarian
[34] = test system: PC-3 prostate
[35] = test system: OVCAR-8 ovarian
[36] = test system: SNB-19 CNS
[37] = test system: K-562 leukemia
[38] = test system: LOX IMVI melanoma
[39] = test system: UO-31 renal
[40] = test system: BT-549 breast
[41] = test system: UACC-257 melanoma
[42] = test system: EKVX NSCLC
[43] = test system: HL-60(TB) leukemia
[44] = test system: 786-0 renal
[45] = test system: SF-295 CNS
[46] = test system: SK-MEL-28 melanoma
[47] = test system: CCRF-CEM leukemia
[48] = test system: SK-MEL-5 melanoma
[49] = test system: NCI-H23 lung
[50] = test system: KM12 colon
[51] = test system: RXF 393 renal
[52] = test system: OVCAR-4 ovarian

## C[n+]1c2ccc(Cl)cc2nc2cc(-c3ccccc3)ccc21
[1]
  TGI: > 100 µM
[2]
  TGI: > 100 µM
[3]
  TGI: > 100 µM
[4]
  TGI: 37.9 µM
[5]
  TGI: 44.2 µM
[6]
  TGI: 65 µM
[7]
  TGI: 80.1 µM
[8]
  TGI: 67.3 µM
[9]
  TGI: 43.8 µM
[10]
  TGI: > 100 µM
[11]
  TGI: > 100 µM
[12]
  TGI: 35.5 µM
[13]
  TGI: 40.4 µM
[14]
  TGI: 39 µM
[15]
  TGI: 6.44 µM
[16]
  TGI: 39.7 µM
[17]
  TGI: > 100 µM
[18]
  TGI: 47.7 µM
[19]
  TGI: 43.2 µM
[20]
  TGI: 31.7 µM
[21]
  TGI: 16 µM
[22]
  TGI: 44 µM
[23]
  TGI: 46.2 µM
[24]
  TGI: 9.14 µM
[25]
  TGI: 27.7 µM
[26]
  TGI: 50.8 µM
[27]
  TGI: 25.1 µM
[28]
  TGI: 55.5 µM
[29]
  TGI: 5.19 µM
[30]
  TGI: 34 µM
[31]
  TGI: 37.7 µM
[32]
  TGI: 4.52 µM
[33]
  TGI: 35.4 µM
[34]
  TGI: 47.3 µM
[35]
  TGI: 16 µM
[36]
  TGI: 9.59 µM
[37]
  TGI: 66.8 µM
[38]
  TGI: > 100 µM
[39]
  TGI: 48.7 µM
[40]
  TGI: 25.5 µM
[41]
  TGI: 32.9 µM
[42]
  TGI: 29.9 µM
[43]
  TGI: 10.7 µM
[44]
  TGI: > 100 µM
[45]
  TGI: 11.5 µM
[46]
  TGI: 43.8 µM
[47]
  TGI: > 100 µM
[48]
  TGI: 24.3 µM
[49]
  TGI: 23.2 µM
[50]
  TGI: 33.7 µM
[51]
  TGI: 55.2 µM
[52]
  TGI: 40.5 µM
